Patent publication EP0379737A2, “Dihydropyridine derivatives for the treatment of angiospasm” (THE GREEN CROSS CORPORATION, priority 1988, dated 1990)

How the values were obtained:
[1] = test system: coronarism induced by laser cauterization of the coronary artery; experiment: Preventive effect of premedication with coronary vasodilators on coronarism induced by laser cauterization of the coronary artery; assay type: in vivo; conditions: anesthetized dogs, drugs given 10 minutes before cauterization (TNG 100 µg i.c. + 50 µg/min d.i.v.; NC 30 µg/kg/min d.i.v.; Compound 2 10 µg/kg i.v.); for Degree of Stenosis (%) (m ± SE) 10 mins. After: 10 minutes after cauterization; for Degree of Stenosis (%) (m ± SE) 30 mins. After: 30 minutes after cauterization; for Degree of Stenosis (%) (m ± SE) Immediately After: immediately after cauterization
Procedure: Preventive effect of premedication of coronary vasodilators on coronarism induced by laser cauterization of the coronary artery was examined using dogs.
Twenty-three anesthetized dogs premediated with a coronary vasodilator [8 dogs in non-treated group (control group); 7 in nitroglycerin-treated (TNG) group (100 µg i.c. (intracoronary) + 50 µg/min d.i.v. (intravenous drip injection)); 5 in Nicorandil (NC) group (30 µg/kg/min d.i.v); and 8 in Compound 2 (hereinafter described) group (10 µg/kg i.v.)] were used. A 9F guiding catheter was inserted from the right common carotid artery into the 28th circumflex ramus extending from the anterior descending branch of the right common carotid artery. After intravenous injection of 250 U of heparin and 20 mg of lidocaine, a probe having an argon laser heating tip having a diameter of 1.5 mm (manufactured by Trimedyne Corp.) was inserted through the catheter, and 10 minutes after the administration of drugs the coronary vessel was cauterized under a condition of 4.5 W × […] under photofluoroscopic observation. Before the cauterization, immediately after the cauterization, and 10 minutes and 30 minutes after the cauterization, changes of the coronary artery were angiographically observed. The degree of stenosis (%) was calculated from the measured inner diameter each of the cauterized site and the normal site. The degree of stenosis of a site undergoing retardation of angiography was taken as 99%.

[2] = Toxicity: LD50 determination in mice; conditions: mouse, in vivo; 10 to 11-week-old male mice, 3 to 5 mice per group; read-out: LD₅₀
Procedure: LD₅₀ was determined for Compound 2 as prepared in Reference Example 1 below using 10 to 11-week-old male mice (body weight: 14 to 16 g; 3 to 5 mice per group). AS a result, measured LD₅₀ values were more than 1,100 mg/kg at the lowest.

SMILES	Degree of Stenosis (%) (m ± SE) 10 mins. After [1]	Degree of Stenosis (%) (m ± SE) 30 mins. After [1]	Degree of Stenosis (%) (m ± SE) Immediately After [1]	LD50 [2] [mg/kg]
COC(=O)C1=C(C)NC(C)=C(C(=O)OCCc2ccc(N3CCN(C(c4ccccc4)c4ccccc4)CC3)cc2)C1c1cccc([N+](=O)[O-])c1 (stereo not shown) [Compound 2, 2-[p-(4-benzhydrylpiperazino)phenyl]ethyl methyl 2,6-dimethyl-4-(3-nitrophenyl)-1,4-dihydropyridine-3,5-dicarboxylate]	9 ± 10	12 ± 12	12 ± 12	> 1100
O=C(NCCO[N+](=O)[O-])c1cccnc1 [NC, Nicorandil]	28 ± 9	29 ± 8	38 ± 11	
O=[N+]([O-])OCC(CO[N+](=O)[O-])O[N+](=O)[O-] [TNG, nitroglycerin]	73 ± 17	66 ± 17	71 ± 4	
